From patent US4950818A, “Method for treating ulcer” (Kuraray Company, Ltd., priority 1988, dated 1990)

Assays:
[1] = system: HCl-ethanol-induced ulcer at the mucosa of the stomach; test: Antiulcer activity (HCl-ethanol ulcer); assay type: in vivo, rats; settings: rat, one hour before HCl-ethanol; for inhibition in vivo at 5 mg/kg: 5 mg/kg oral; for inhibition in vivo at 2.5 mg/kg: 2.5 mg/kg oral; for inhibition in vivo at 1 mg/kg: 1 mg/kg oral
Experimental: 1.5 ml of aqueous 60% ethanol solution containing 150 mM hydrochloric acid was orally administered to rats. One hour thereafter the rats were sacrificed and the length (mm) of HCl-ethanol-induced ulcer which was generated at the mucosa of the stomach was measured. Sum of the length of ulcer per animal is defined as ulcer coefficient. Specimens were each orally administered one hour before the HCl-ethanol administration. Inhibition rate was calculated by dividing the difference of ulcer coefficients of the control group and the specimen-administered group by the ulcer coefficient of the control group.

[2] = system: pylorus ligation ulcer at the proventriculus part; test: Antiulcer activity (pylorus ligation ulcer); assay type: in vivo, rats; settings: rat, 100 mg/kg oral, 30 minutes before pylorus ligation; 13 hours
Experimental: After rats weighing 210 to 230 g were made to fast for 24 hours, each pylorus part was ligated under ether anesthesia according to Shay et al. method [Castroenterogy, 5, 43 (1945)]. After leaving for 13 hours the animals were sacrificed, and each ulcer which had been generated at the proventriculus part was macroscopicly observed and evaluated according to the following 5 steps of ulcer index:
2; There are hyperemia or 5 or less of small ulcers
(diameter less than 3 mm).
3; There are 5 or more of small ulcers or one large
ulcer (diameter equal to or more than 3 mm).
4; There are 2 or more of large ulcers.
Compound (1) (specimen) as prepared according to the method in Reference example and spizofurone as a control specimen were orally administered 30 minutes before the pylorus ligation. Inhibition rate was calculated by dividing the difference of ulcer coefficients of the control group and the specimen-administered group by the ulcer coefficient of the control group.

Acute toxicity (oral) = settings: mouse, in vivo, male ICR-strain mice
Experimental: Acute toxicity tests through oral administration were carried out using male ICR-strain mice (5 weeks old).

Structure (SMILES): Cc1ccc(/C=C/C2=CC(=O)OC2O)cc1 (centres unmarked) [(2)]
- inhibition in vivo at 5 mg/kg ([1]; 1 h, read-out: Inhibition rate): 98.3%

Structure (SMILES): CCc1ccc(/C=C/C2=CC(=O)OC2O)cc1 (centres unmarked) [(4)]
- inhibition in vivo at 2.5 mg/kg ([1]; 1 h, read-out: Inhibition rate): 86.2%

Structure (SMILES): COc1ccc(/C=C/C2=CC(=O)OC2O)cc1 (centres unmarked) [(5)]
- inhibition in vivo at 2.5 mg/kg ([1]; 1 h, read-out: Inhibition rate): 98.8%

Structure (SMILES): COc1cccc(/C=C/C2=CC(=O)OC2O)c1OC (centres unmarked) [(6)]
- inhibition in vivo at 1 mg/kg ([1]; 1 h, read-out: Inhibition rate): 59.8%

Structure (SMILES): COc1ccc(OC)c(/C=C/C2=CC(=O)OC2O)c1 (centres unmarked) [(7)]
- inhibition in vivo at 5 mg/kg ([1]; 1 h, read-out: Inhibition rate): 98.6%

Structure (SMILES): O=C1C=C(/C=C/c2c(F)c(F)c(F)c(F)c2F)C(O)O1 (centres unmarked) [(8)]
- inhibition in vivo at 1 mg/kg ([1]; 1 h, read-out: Inhibition rate): 67.4%

Structure (SMILES): O=C1C=C(/C=C/c2ccc(F)cc2)C(O)O1 (centres unmarked) [(9)]
- inhibition in vivo at 5 mg/kg ([1]; 1 h, read-out: Inhibition rate): 100%

Structure (SMILES): O=C1C=C(/C=C/c2ccc(Cl)cc2)C(O)O1 (centres unmarked) [(10)]
- inhibition in vivo at 5 mg/kg ([1]; 1 h, read-out: Inhibition rate): 100%

Structure (SMILES): O=C1C=C(/C=C/c2cccc(Cl)c2)C(O)O1 (centres unmarked) [(11)]
- inhibition in vivo at 2.5 mg/kg ([1]; 1 h, read-out: Inhibition rate): 91%

Structure (SMILES): O=C1C=C(/C=C/c2ccc(Cl)cc2Cl)C(O)O1 (centres unmarked) [(12)]
- inhibition in vivo at 5 mg/kg ([1]; 1 h, read-out: Inhibition rate): 54.1%

Structure (SMILES): O=C1C=C(/C=C/c2ccc([N+](=O)[O-])cc2)C(O)O1 (centres unmarked) [(13)]
- inhibition in vivo at 2.5 mg/kg ([1]; 1 h, read-out: Inhibition rate): 34.1%

Structure (SMILES): N#Cc1ccc(/C=C/C2=CC(=O)OC2O)cc1 (centres unmarked) [(15)]
- inhibition in vivo at 5 mg/kg ([1]; 1 h, read-out: Inhibition rate): 99.4%

Structure (SMILES): O=C1C=C(/C=C/c2cccc(O)c2)C(O)O1 (centres unmarked) [(16)]
- inhibition in vivo at 2.5 mg/kg ([1]; 1 h, read-out: Inhibition rate): 42.7%

Structure (SMILES): O=C1C=C(/C=C/c2ccccc2)C(O)O1 (centres unmarked) [Compound (1), 5-hydroxy-4-[2-phenyl-(E)-ethenyl]-2(5H)-furanone]
- inhibition in vivo at 5 mg/kg ([1]; 1 h, read-out: Inhibition rate): 97.9%
- Inhibition rate [2]: 80.3%
- LD50 (Acute toxicity (oral)): ≥ 2000 mg/kg

Structure (SMILES): Cc1cc(C)c(/C=C/C2=CC(=O)OC2O)c(C)c1 (centres unmarked) [Compound (3)]
- inhibition in vivo at 5 mg/kg ([1]; 1 h, read-out: Inhibition rate): 100%

Structure (SMILES): CC(=O)c1ccc2c(c1)C(=O)C1(CC1)O2 [Spizofurone, reference compound]
- Inhibition rate ([1]; 100 mg/kg oral): 86.6%
- Inhibition rate [2]: 1.5%

Structure (SMILES): CC(=O)CCC=C(C)CCC=C(C)CCC=C(C)CCC=C(C)C [Teprenone, reference compound]
- inhibition in vivo at 25 mg/kg ([1]; 1 h, 25 mg/kg oral, read-out: Inhibition rate): 48.9%
